Test results reported in article PMC7291858, “An Enhanced Variant Designed From DLP4 Cationic Peptide Against Staphylococcus aureus CVCC 546” (Frontiers in Microbiology, 2020).
Values after ≈ are worked out from the molar mass of the structure shown. Ends that are not written are not given here. Peptide text beside a SMILES is read from it.

Tests used:
[1] = Drop-diffusion assay of antibacterial activity; type: cell-based
S. aureus CVCC 546 [2] = assay: Mouse thigh infection model, CFU in thigh muscle; type: in vivo, mouse (female CD-1); conditions: 10 mg/kg single i.p. dose 2 h post-infection, read 24 h post-infection, n = 6
Experimental: (§1) Mouse experiments were carried out at Gene Engineering Laboratory, Feed Research Institute of Chinese Academy of Agricultural Sciences (CAAS) and complied with institutional animal care and use policies and procedures (AEC-CAAS-20090609). All animal studies were performed with female CD-1 mice, 6∼7 weeks old.
(§2) S. aureus CVCC 546 in the exponential phase were resuspended in MHB and adjusted to 1 × 10^8 CFU/mL, a 0.1-mL inoculum was injected into the right thighs of mice. At 2 h post-infection, mice (n = 6) were administered intraperitoneally (i.p.) with peptides at 2.5, 5, or 10 mg/kg. Mice raised without any treatment, or treated with PBS, 10 mg/kg DLP4, or vancomycin were used as the blank and negative and positive controls, respectively. At 24 h post-infection, peripheral blood was collected and serum was separated for cytokine levels analysis by using enzyme-linked immunosorbent assay (ELISA) kit (R&D systems, United States). Mice were euthanized, the right thighs were aseptically removed and processed for colonies counting ([Ling et al., 2015]).

S. suis CVCC 3928 = assay: MIC, microtiter plate assay; type: cell-based, Streptococcus suis; conditions: 37°C, 16∼20 h, triplicate
Experimental: (§3) The minimal inhibitory concentration (MIC) was evaluated by a microtiter plate assay ([Wiegand et al., 2008]). Serial 2-fold dilutions of test peptides were placed into a 96-well plate containing identical bacterial inoculum and incubated at 37°C for 16∼20 h. Vancomycin was used as antibiotic control. The MIC value was defined as the lowest peptide concentration where no visible growth occurred. All tests were made in triplicate.

[3] = tested on: Staphylococcus aureus CVCC 546; assay: microbe, parasite or virus in culture; type: cell-based
Experimental: as §3

S. aureus CVCC 546 [4] = assay: Potassium ion (K+) leakage; type: cell-based, Staphylococcus aureus; conditions: 1 × MIC, treated for 150 min, 0.9% saline, 10^8 CFU/mL, ICP, n = 3
Experimental: To further investigate the effects of peptides on membrane integrity, K^+ leakage determination was carried out as previously described ([Miao et al., 2016]). Briefly, S. aureus CVCC 546 cells were centrifuged, washed, and resuspended in 0.9% sterile saline. The cell suspension (10^8 CFU/mL) was treated with peptides at 1 × MIC. Cells untreated and treated with DLP4 or nisin were used as blank and positive controls. At time intervals of 30, 60, 90, 120, and 150 min, the suspensions were centrifuged at 12000 rpm for 5 min. The supernatants were then subjected to measurement by Agilent inductively coupled plasma optical emission (ICP-OES).

S. aureus CVCC 546 [5] = assay: Post-antibiotic effect (PAE); type: cell-based, Staphylococcus aureus; conditions: 2 × MIC, 2 h exposure, mean ± SD, n = 3
Experimental: The PAE was determined by exposing S. aureus cells to antimicrobial agent at 1×, 2×, or 4 × MIC for 2 h. After drug removal by dilution, the bacterial culture was incubated at 37°C and 250 rpm. An aliquot of samples (50 μL) were taken for CFU counts at different time intervals until bacterial cultures became turbid. Bacteria treated with DLP4 or vancomycin and left without treatment were used as the positive and blank controls, respectively. The PAE was calculated using the following formula: PAE = T − C, where T is the time for the CFU counts to increase by 10-fold above the count observed immediately after drug removal, and C is the corresponding time for the untreated control ([Oh et al., 2019]).

[6] = tested on: Escherichia coli ATCC 25922; assay: MIC, microtiter plate assay; type: cell-based; conditions: 37°C, 16∼20 h, triplicate
Experimental: as §3

[7] = tested on: Streptococcus pneumoniae CVCC 2350; assay: MIC, microtiter plate assay; type: cell-based; conditions: 37°C, 16∼20 h, triplicate
Experimental: as §3

[8] = tested on: Salmonella pullorum CVCC 533; assay: MIC, microtiter plate assay; type: cell-based; conditions: 37°C, 16∼20 h, triplicate
Experimental: as §3

mouse erythrocytes = assay: Hemolytic activity; type: cell-based; conditions: 128 μg/mL, 8% (v/v) mouse erythrocytes in PBS, 1 h, 37°C, absorbance 576 nm, n = 3
Experimental: Hemolytic activity of peptides was evaluated with fresh mouse erythrocytes. Briefly, fresh mouse erythrocytes were collected, washed, and resuspended to a concentration of 8% (v/v) in PBS. Then, an aliquot of erythrocyte solution was added to 96-well plates containing an equal volume of peptide solution (1∼256 μg/mL) and was incubated for 1 h at 37°C. The erythrocyte suspension treated with 0.1% Triton X-100 and left untreated was employed as positive and negative controls, respectively. After centrifugation at 2000 rpm for 5 min, the supernatant was measured using a microplate reader at 576 nm. The percent hemolysis was calculated using the following formula: Percenthemolysis = [(A − A0)/(A100 − A0)] × 100%, where A, A100, and A0 represent the absorbance of the peptide sample and positive and negative controls, respectively.

S. aureus CVCC 546 [9] = assay: Time-kill assay; type: cell-based, Staphylococcus aureus; conditions: 2 × MIC, MHB, 10^5 CFU/mL, 37°C, n = 3
From the text: Time-kill assay was used to assess the killing rates of S. aureus cells by AMPs in vitro, done by measuring the number of viable bacteria left at various times after exposure to the peptides. […] At different time intervals, a certain sample was taken, serially diluted, and plated on MHA for colonies counting. Cells treated with 2 × MIC DLP4 or vancomycin and left without treatment were used as the positive and blank controls, respectively ([Flamm et al., 2019]).

S. aureus ATCC 43300 = type: cell-based, Staphylococcus aureus; conditions: microtiter, serial 2-fold dilutions, 37°C, 16∼20 h, triplicate; – = no activity
Outline: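 Broth microdilution format: peptides diluted 2-fold serially, same inoculum per well, incubated 16∼20 h at 37°C, with vancomycin as antibiotic control. Values are the lowest concentrations preventing visible growth, determined in triplicate.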

S. aureus CVCC 546 [10] = assay: Membrane permeabilization, PI flow cytometry; type: cell-based, Staphylococcus aureus; conditions: 2 × MIC, 0.5 h, 10^8 CFU/mL, n = 3
Experimental: The effects of peptides on membrane permeabilization were measured by flow cytometry ([Zhu et al., 2018]). […] Cells untreated and treated with 2 × MIC DLP4 or vancomycin were used as blank and positive controls. The fluorescence of the dye was monitored at an excitation wavelength of 488 nm and an emission wavelength of 635 nm.

S. enteritidis CVCC 3377 = assay: MIC, microtiter plate assay; type: cell-based, Salmonella enteritidis; conditions: 37°C, 16∼20 h, triplicate
Experimental: as §3

[11] = tested on: S. epidermidis ATCC 12228; assay: MIC, microtiter plate assay; type: cell-based, Staphylococcus epidermidis; conditions: 37°C, 16∼20 h, triplicate
Experimental: as §3

Gram-negative bacteria = assay: MIC, summary over Gram-negative strains; type: cell-based; conditions: E. coli and Salmonella strains of Table 2
Experimental: as §3

S. aureus CVCC 546 gDNA = assay: Gel retardation assay of gDNA binding; parameters: species or system Staphylococcus aureus; conditions: 10 min incubation, 1% agarose gel, ratios 0-5 (w/w)
Experimental: A gel retardation assay ([Zhao et al., 2019]) was utilized to analyze the binding of peptides to genomic DNA (gDNA) extracted from S. aureus CVCC 546 with TIANamp Bacteria DNA Kit (TIANGEN Biotech Co., Ltd., Beijing). The peptides were incubated for 10 min with gDNA at different ratios of 0–5.0 (w/w) and then loaded on 1% agarose gel for electrophoresis analysis.

[12] = tested on: mouse macrophage RAW 264.7; assay: Cytotoxicity, MTT assay; type: cell-based; conditions: 256 μg/mL, RAW 264.7, MTT, n = 4
Experimental: The cytotoxicity of peptides toward mouse macrophage RAW 264.7 was evaluated by the MTT assay as described previously ([Wang X. et al., 2018]).

IL-6 = assay: Mouse thigh infection model, serum cytokine ELISA; type: in vivo, mouse (female CD-1); conditions: 10 mg/kg i.p., serum 24 h post-infection
Experimental: as §1, §2

IL-10 = assay: Mouse thigh infection model, serum cytokine ELISA; type: in vivo, mouse (female CD-1); conditions: 10 mg/kg i.p., serum 24 h post-infection
Experimental: as §1, §2

TNF-α = assay: Mouse thigh infection model, serum cytokine ELISA; type: in vivo, mouse (female CD-1); conditions: 10 mg/kg i.p., serum 24 h post-infection
Experimental: as §1, §2

E. coli K88 = assay: MIC, microtiter plate assay; type: cell-based, Escherichia coli; conditions: 37°C, 16∼20 h, triplicate
Experimental: as §3

ATCDLLSPFKVGHAACAAHCIARGKRSGWCDKRAVCNCRK (also: bicyclic or more (positions not given here)) [ID7, DLP4 derivative changed at a conservative site]
antibacterial activity [1]: no antibacterial activity

CC[C@H](C)[C@@H]1NC(=O)[C@@H]2CSSC[C@@H](C(=O)N[C@@H](CCCNC(=N)N)C(=O)N[C@@H](CCCCN)C(=O)O)NC(=O)[C@H](CC(N)=O)NC(=O)[C@@H]3CSSC[C@H](NC(=O)[C@H](C)NC(=O)[C@H](C)NC(=O)[C@H](Cc4c[nH]cn4)NC(=O)CNC(=O)[C@H](C(C)C)NC(=O)[C@H](CCCCN)NC(=O)[C@H](Cc4ccccc4)NC(=O)[C@@H]4CCCN4C(=O)[C@H](CO)NC(=O)[C@H](CC(C)C)NC(=O)[C@H](CC(C)C)NC(=O)[C@H](CC(=O)O)NC(=O)[C@@H](NC(=O)[C@@H](NC(=O)[C@H](C)N)[C@@H](C)O)CSSC[C@H](NC(=O)[C@H](Cc4c[nH]c5ccccc45)NC(=O)CNC(=O)CNC(=O)[C@H](CCCNC(=N)N)NC(=O)[C@H](CCCCN)NC(=O)CNC(=O)[C@H](CCCNC(=N)N)NC(=O)[C@H](C)NC1=O)C(=O)N[C@@H](CC(=O)O)C(=O)N[C@@H](CCCCN)C(=O)N[C@@H](CCCNC(=N)N)C(=O)N[C@@H](C)C(=O)N[C@@H](C(C)C)C(=O)N3)C(=O)N[C@@H](C)C(=O)N[C@@H](C)C(=O)N[C@@H](Cc1c[nH]cn1)C(=O)N2 [DLP4] (HELM PEPTIDE1{A.T.C.D.L.L.S.P.F.K.V.G.H.A.A.C.A.A.H.C.I.A.R.G.K.R.G.G.W.C.D.K.R.A.V.C.N.C.R.K}$PEPTIDE1,PEPTIDE1,3:R3-30:R3|PEPTIDE1,PEPTIDE1,16:R3-36:R3|PEPTIDE1,PEPTIDE1,20:R3-38:R3$$$V2.0; N-terminus and C-terminus assumed)
reduction of S. aureus in infected thigh muscles (S. aureus CVCC 546 [2]): 1.7 log10 (CFU/g)
MIC (S. suis CVCC 3928): 3.75 µM (≈ 16 µg/mL)
MIC ([3]; Table 1, – = no activity): 16
MIC ([3]; microtiter, 37°C, 16∼20 h, triplicate): 3.75 µM (≈ 16 µg/mL)
level of released K+ (S. aureus CVCC 546 [4]): 0.72 mg/L
PAE (S. aureus CVCC 546 [5]): 8.20 ± 0.19 h
MIC [6]: >29.98 µM
MIC [7]: 7.50 µM (≈ 32 µg/mL)
MIC [8]: >29.98 µM
hemolysis (mouse erythrocytes): 0.61%
decrease of CFU counts within 1 h (S. aureus CVCC 546 [9]): 2.7 log10 CFU/mL
A1 (MIC against S. aureus ATCC 43300) (S. aureus ATCC 43300): 16 µg/mL
percentage of PI-positive cells (S. aureus CVCC 546 [10]): 41.8%
MIC (S. enteritidis CVCC 3377): >29.98 µM
MIC [11]: 14.99 µM (≈ 64 µg/mL)
activity against Gram-negative bacteria (Gram-negative bacteria): no activity
peptide/gDNA mass ratio at which gDNA was completely blocked (S. aureus CVCC 546 gDNA): 2.5
peptide/gDNA mass ratio at which migration of gDNA began to be retarded (S. aureus CVCC 546 gDNA): 0.5
cell viability [12]: 63.8%
downregulation of serum level of IL-6 (IL-6): 710.02 pg/mL
downregulation of serum level of IL-10 (IL-10): 29.06 pg/mL
downregulation of serum level of TNF-α (TNF-α): 1103.30 pg/mL
MIC (E. coli K88): >29.98 µM
